In patent US20200157144A1, “ANTIMICROBIAL PEPTIDOMIMETICS” (priority 2017, published 2020):
Converted amounts (≈) assume the structure as drawn. Read-outs that look alike come from different tables or passages of the source. Square brackets hold non-standard residues; d marks the D form. Peptide text beside a SMILES is read from it. Bip(4'-Cl) = N[C@@H](Cc1ccc(-c2ccc(Cl)cc2)cc1)C(=O)O; dBip(4'-Cl) = N[C@H](Cc1ccc(-c2ccc(Cl)cc2)cc1)C(=O)O; Bip = N[C@@H](Cc1ccc(-c2ccccc2)cc1)C(=O)O

Experiments:
Assay in all cases: microbe, parasite or virus in culture
Assay type in all cases: cell-based, Staphylococcus aureus
[1] = tested on: Mupirocin-susceptible MRSA ATCC-BAA-1681 (USA100); details: ATCC-BAA-1681; read-out: MIC
Protocol: (§1) The MICs of test compounds were determined using the microdilution method from the Clinical and Laboratory Standards Institute (CLSI) guidelines (Clinical and Laboratory Standards Institute. Methods for dilution antimicrobial susceptibility tests for bacteria that grow aerobically; approved standard—ninth edition. Document M07-A9. Vol. 32 No. 2. Wayne, Pa.: CLSI; 2012). Briefly, bacteria were grown fresh from frozen stock in Mueller Hinton 2 (MH2) agar at 37° C. After an overnight incubation, 5 bacteria colonies were selected to grow in cation-adjusted MH2 broth in a shaking incubator (140 RPM) at 37° C. Cells were grown to an optical density (OD600) of 0.15-0.16 determined using a spectrophotometer (Molecular Devices Spectra Max Plus), which corresponds to ˜1×10^8 CFU/mL. Test compounds were constituted into 4 mM DMSO stock solutions and then subjected to 2-fold serial dilution in a 96-well plate with concentrations ranging from 100 to 0.195 μM in duplicates. […] of microbial culture containing ˜1×10^6 CFU/mL of microbes in the respective broths was introduced into each well containing 50 μL of compound solution. After an overnight incubation at 35° C., (220 RPM), OD600 measurements were conducted using the microplate spectrophotometer. The MIC was defined as the lowest antibiotic or compound concentration (μM) required to inhibit bacteria growth.
(§2) The 11th well was used as the growth control well (medium with bacterial inoculums, no antibacterial) while the 12th well was the sterility control well (medium only).

[2] = tested on: Mupirocin-susceptible MRSA ATCC-BAA-1707 (USA400); details: ATCC-BAA-1707; read-out: MIC
Protocol: as §1, §2

[3] = tested on: Mupirocin-susceptible MRSA ATCC-700699 (VISA); details: read-out: MIC
Protocol: as §1, §2

[4] = tested on: Mupirocin-resistant MRSA ATCC-BAA-1708; details: ATCC-BAA-1708; read-out: MIC
Protocol: as §1, §2

[5] = tested on: Mupirocin-resistant MRSA ATCC-BAA-1556; details: for MIC: read-out: MIC
Protocol: as §1, §2

[6] = tested on: Mupirocin-resistant MRSA ATCC-BAA-1750 (USA200); details: ATCC-BAA-1750; read-out: MIC
Protocol: as §1, §2

[7] = tested on: Mupirocin-susceptible MRSA ATCC-BAA-2762 (EMRSA15, ST22); details: ATCC-BAA-2762; read-out: MIC
Protocol: as §1, §2

[8] = tested on: Mupirocin-susceptible MRSA ATCC-BAA-1754 (ST45); details: ATCC-BAA-1754; read-out: MIC
Protocol: as §1, §2

[9] = tested on: Mupirocin-susceptible MRSA ATCC-BAA-1756 (USA300); details: ATCC-BAA-1756; read-out: MIC
Protocol: as §1, §2

[10] = tested on: Mupirocin-susceptible MRSA ATCC-33592 (ST239); details: ATCC-33592; read-out: MIC
Protocol: as §1, §2

[11] = Mupirocin-resistant MRSA ATCC-BAA-1556, cation-adjusted MH2 broth, overnight 35° C., OD600

Compound: N=C(N)NCCCCNC(=O)[C@@H](Cc1ccc(-c2ccccc2)cc1)NC(=O)[C@@H](CCCNC(=N)N)NC(=O)[C@H](N)Cc1ccc(-c2ccccc2)cc1 [Compound 2]
- MIC [1]: 6.25 µM (≈ 4.58 µg/mL)
- MIC [2]: 6.25 µM (≈ 4.58 µg/mL)
- MIC ([3]; Mupirocin-susceptible MRSA ATCC-700699 (VISA)): 6.25 µM (≈ 4.58 µg/mL)
- MIC [4]: 6.25 µM (≈ 4.58 µg/mL)
- MIC [5, 11]: 12.5 µM (≈ 9.16 µg/mL)
- MIC [6]: 6.25 µM (≈ 4.58 µg/mL)
- MIC [7]: 6.25 µM (≈ 4.58 µg/mL)
- MIC [8]: 6.25 µM (≈ 4.58 µg/mL)
- MIC [9]: 6.25 µM (≈ 4.58 µg/mL)
- MIC [10]: 6.25 µM (≈ 4.58 µg/mL)

Compound: N=C(N)NCCC[C@H](NC(=O)[C@H](Cc1ccc(-c2ccccc2)cc1)NC(=O)[C@H](CCCNC(=N)N)NC(=O)[C@@H](N)Cc1ccc(-c2ccccc2)cc1)C(N)=O [Compound 32] (H-[Bip]R[Bip]R-NH2)
- MIC ([5]; ATCC-BAA-1556): 50 µM (≈ 38.8 µg/mL)

Compound: N=C(N)NCCC[C@H](NC(=O)[C@H](Cc1ccc(-c2ccc(Cl)cc2)cc1)NC(=O)[C@H](CCCNC(=N)N)NC(=O)[C@@H](N)Cc1ccc(-c2ccc(Cl)cc2)cc1)C(N)=O [Compound 33] (H-[Bip(4'-Cl)]R[Bip(4'-Cl)]R-NH2)
- MIC [1]: 3.125 µM (≈ 2.64 µg/mL)
- MIC [2]: 3.125 µM (≈ 2.64 µg/mL)
- MIC ([3]; ATCC-700699): 3.125 µM (≈ 2.64 µg/mL)
- MIC [4]: 1.56 µM (≈ 1.32 µg/mL)
- MIC [5, 11]: 3.125 µM (≈ 2.64 µg/mL)
- improvement of bioactivity (lower MIC values) as compared to Compound 2 ([5]; against Mupirocin-resistant MRSA strains): about 4 fold
- MIC [6]: 1.56 µM (≈ 1.32 µg/mL)
- MIC [7]: 3.125 µM (≈ 2.64 µg/mL)
- MIC [8]: 3.125 µM (≈ 2.64 µg/mL)
- MIC [9]: 3.125 µM (≈ 2.64 µg/mL)
- MIC [10]: 3.125 µM (≈ 2.64 µg/mL)

Compound: N=C(N)NCCC[C@@H](NC(=O)[C@H](N)Cc1ccc(-c2ccc(Cl)cc2)cc1)C(=O)N[C@H](Cc1ccc(-c2ccc(Cl)cc2)cc1)C(N)=O [Compound 35]
- MIC ([5]; ATCC-BAA-1556): 6.25 µM (≈ 4.3 µg/mL)

Compound: N=C(N)NCCC[C@@H](NC(=O)[C@@H](Cc1ccc(-c2ccc(Cl)cc2)cc1)NC(=O)[C@H](N)CCCNC(N)=O)C(N)=O [Compound 36]
- MIC ([5]; ATCC-BAA-1556): >100 µM

Compound: N=C(N)NCCC[C@@H](NC(=O)[C@H](N)Cc1ccc(-c2ccc(Cl)cc2)cc1)C(N)=O [Compound 37]
- MIC ([5]; ATCC-BAA-1556): >100 µM

Compound: NC(=O)NCCC[C@@H](N)C(=O)N[C@H](Cc1ccc(-c2ccc(Cl)cc2)cc1)C(N)=O [Compound 38]
- MIC ([5]; ATCC-BAA-1556): >100 µM

Compound: N=C(N)NCCC[C@@H](N)C(=O)N[C@H](Cc1ccc(-c2ccc(Cl)cc2)cc1)C(=O)N[C@H](CCCNC(=N)N)C(=O)N[C@H](Cc1ccc(-c2ccc(Cl)cc2)cc1)C(=O)N[C@H](CCCNC(=N)N)C(N)=O [Compound 39] (H-[dR][dBip(4'-Cl)][dR][dBip(4'-Cl)][dR]-NH2)
- MIC ([5]; ATCC-BAA-1556): 3.125 µM (≈ 3.13 µg/mL)
